# From US20120171123A1, “USES AND COMPOSITIONS FOR TREATMENT OF RHEUMATOID ARTHRITIS” (priority 2006, published 2012)
# How the values were obtained:
# Type in all cases: in vivo, human
# adult patients with RA = assay: Study 1: HAQ change by CRP category
# Procedure: 407 patients with active RA enrolled in the 2 study arms. Of these patients, 299 (73.5%) patients completed the study until Week 52 and were evaluated.
# Patients were grouped into three cohorts based on baseline CRP concentrations: low (<1 mg/dL); intermediate (1-4 mg/dL); and high (>4 mg/dL). Analyses were further conducted in two categories of patients according to their change in CRP concentrations at Week 12: those with a ≧20% decrease in CRP from baseline; or those with a <20% decrease in CRP from baseline. The following efficacy and radiographic measures were analyzed at Week 52 in the three baseline CRP categories and in the two Week 12 change in CRP categories: DAS28, ACR 20/50/70, Health assessment questionnaire (HAQ), and Total Sharp score (TSS).
# [1] = tested on: patients with long-standing RA; assay: Study 4 (open-label extension, adalimumab 40 mg eow + MTX): ACR response and Major Clinical Response
# Procedure: The following study was performed to evaluate sustained remission in patients with RA treated with adalimumab and mtx. The study was an open-label extension study, where the last visit of the preceding study was used as the screening visit for Study 4. The study design for Study 4 is described in FIG. 12. The percentage of patients remaining on treatment over time from the first dose of adalimumab remained relatively constant. 846 patients enrolled over time.
# ACR response rates and Major Clinical Response (MCR) remained constant through the fourth year of adalimumab treatment. Major Clinical Response (MCR) was defined as patients maintaining an ACR70 response for at least 6 continuous months over a 2-year period. […] At the end of the 4 year time period, 79% of patients had maintained an ACR20, 61% maintained an ACR50 response, and 38% maintained an ACR 70 response.
# After these trials, patients were eligible to enroll in two separate OLE studies: Study 4 and Study 5. Patients were evaluated for efficacy and safety every 3 months.
# Efficacy outcomes were evaluated as observed data: DAS28; ACR 20/50/70; Tender Joint Count (TJC); Swollen Joint Count (SJC); and HAQ Disability Index. Baseline demographics and disease characteristics were similar in both Study 4 and Study 5 consistent with moderate to severe RA, as shown below in Table 64: […]
# [2] = tested on: patients with severe RA who had failed at least one DMARD; assay: Study 2 / Study 3 OLE (adalimumab 40 mg eow monotherapy): HUI3 health utility; conditions: for mean HUI3 change from baseline: week 26 (6 months), monotherapy
# Procedure: In addition to the SF-36 instrument, the Health Utilities Index Mark 3 (HUI3) and the Functional Assessment of Chronic Illness Therapy-Fatigue (FACIT-F) questionnaires were administered at baseline, 12 weeks, and the end of the study.
# The HUI3 scale is 0-1, with “1” denoting perfect health and “0” denoting death. FACIT-F scores range from 0-52, with higher scores representing less fatigue. The SF-36 includes one multi-item scale that assesses eight different dimensions of health, including physical and psychosocial components. For each dimension a value of 0-100 is given, with higher numbers representing less impairment. Changes in HUI3 of ≧0.03, in FACIT-F of ≧4 and in SF-36 of ≧4.4 (physical subscales) and ≧3.1 (mental subscales) are considered clinically meaningful.
# The HUI3 was assessed at baseline, and at several time points during the study. Health Utility Index 3 (scale=0-1) measures preference of a health state, with “1” denoting perfect health and “0” denoting death. HUI3 changes of ≧0.03 are considered clinically important. The HUI3 classification system consists of 8 attributes and 5 or 6 levels on each attribute, ranging from full function to severe impairment.
# Inclusion criteria for this study included: all patients had severe active disease; and all patients had failed prior DMARD(s).
# The Health Utilities Index Mark 3 (HUI3) was assessed at three time points. HUI 3 consists of 8 attributes: vision, hearing, speech, ambulation, dexterity, emotion, cognition, and pain. HUI3 score changes of ≧0.03 are considered clinically important. […] As can also be seen in this figure, the Study 2 study population started with baseline values reflecting a patient population with a more severe disease activity than in Study I, as documented by TJC, SJC, HAQ, CRP, and number of previous DMARDs.
# In addition to clinical parameters, the SF-36 instrument, the Health Utilities Index Mark 3 (HUI3), and the Functional Assessment of Chronic Illness Therapy-Fatigue (FACIT-F) questionnaires were administered at baseline, and at weeks 12, 26, 50, 74, 98, 122, 146 and 170, respectively. The HUI3 scale ranges from 0-1, with “1” denoting perfect health and “0” denoting death. FACIT-F scores range from 0-52, with higher scores representing less fatigue. SF-36 scores range from 0-100 with higher scores indicating improvement in HRQoL. Changes in HUI3 scores of ≧0.03, 1 FACIT-F scores of ≧4, 2 and individual SF-36 domain scores of 5-103 are considered clinically meaningful.
# [3] = tested on: patients with long-standing RA; assay: Study I open-label extension: DAS28 and clinical remission; conditions: for patients in clinical remission (DAS28<2.6) / mean change from baseline in DAS28: last visit
# Procedure: 217 patients who completed the blinded period and participated in the extension trial for a minimum of 6 months were allowed to adjust MTX and/or corticosteroid dosages at the discretion of the principal investigators. Dose tapering was conducted according to standard medical practice with respect to controlling disease activity
# Demographic data, age, gender, disease duration, rheumatoid factor and changes in TJC, SJC, CRP, DAS28, HAQ and ACR responses were analysed. Baseline demographics and disease characteristics as well as efficacy measures at last visit (ACR 20/50/70, DAS28, HAQ) were compared between the groups. All patients, including those who discontinued from the trial, were evaluated
# Patients were eligible to enroll in Study I if they met ACR criteria for diagnosis of RA. […] Efficacy outcomes were assessed at pre-specified intervals as observed data. Treatment time was calculated beginning with the first subcutaneous injection of adalimumab at any dose, excluding time on placebo. Improvements in signs and symptoms of RA were evaluated for ACR20, ACR50, and ACR70 criteria, 28-joint count Disease Activity Score (DAS28) using the CRP-based formula, and Health Assessment Questionnaire (HAQ). Patients with changes in dosage of MTX or corticosteroids were evaluated for at least 6 months; these patients were eligible for the extension study for at least 6 months and were eligible for discretionary dose tapering. Patients were monitored for adverse events (AEs) during the entire length of the study, from signed informed consent through last visit.
compound,measurement,setting,value
"CN(Cc1cnc2nc(N)nc(N)c2n1)c1ccc(C(=O)N[C@@H](CCC(=O)O)C(=O)O)cc1 [mtx alone, methotrexate]",mean change in HAQ,"adult patients with RA; week 52, <20% decrease in CRP at week 12",−0.29
same,HAQ mean change,"adult patients with RA; week 52, baseline CRP 1-4 mg/dL",−0.4
same,HAQ mean change,"adult patients with RA; week 52, baseline CRP <1 mg/dL",−0.4
same,HAQ mean change,"adult patients with RA; week 52, baseline CRP >4 mg/dL",−0.3
same,mean change in HAQ,"adult patients with RA; week 52, ≧20% decrease in CRP at week 12",−0.48
"adalimumab: human anti-TNF mAb (HUMIRA, Abbott Laboratories), described in U.S. Pat. No. 6,090,382 as D2E7",patients maintaining ACR20,[1]; end of 4 years,79%
same,patients maintaining ACR50,[1]; end of 4 years,61%
same,patients maintaining ACR70,[1]; end of 4 years,38%
same,patients achieving Major Clinical Response (ACR70 ≧6 continuous months),[1]; patients with at least 3 years of exposure,31%
same,patients reaching HUI3 MCID of 0.03 change from baseline,[2]; week 12 through week 170,about 60%
same,mean HUI3 change from baseline,[2],"0.18 a, b"
same,mean HUI3 change from baseline,[2]; listed as ada,0.18
same,mean HUI3 improvement from baseline,[2]; week 50 (1 year),+0.17
same,mean HUI3 improvement from baseline,"[2]; week 50 (1 year), listed as ada",0.17
same,mean HUI3 improvement from baseline,[2]; week 170 (3 years),+0.19
same,mean HUI3 improvement from baseline,"[2]; week 170 (3 years), listed as ada",0.19
same,patients with DAS28<2.6,[3]; 5 years,52%
same,patients in clinical remission (DAS28<2.6),[3]; mtx and steroid decrease,24%
same,mean change from baseline in DAS28,[3]; mtx decrease,−2.7
same,patients in clinical remission (DAS28<2.6),[3]; mtx decrease,7.2%
same,mean change from baseline in DAS28,[3]; mtx increase,−1.7
same,patients in clinical remission (DAS28<2.6),[3]; mtx increase,6.7%
same,mean change from baseline in DAS28,[3]; mtx no change,−2.5
same,patients in clinical remission (DAS28<2.6),[3]; mtx no change,15.5%
same,mean change from baseline in DAS28,[3]; mtx+steroid decrease,−3.0
same,mean change from baseline in DAS28,[3]; steroid decrease,−2.9
same,patients in clinical remission (DAS28<2.6),[3]; steroid decrease,21.6%
same,mean change from baseline in DAS28,[3]; steroid no change,−2.5
same,patients in clinical remission (DAS28<2.6),[3]; steroid no change,17.2%
